# Values of other authors in patent US20100112181A1, “Recovery of Antioxidants from Decaffeination Process” (priority 2008, published 2010).
# Conditions: reported by K. Iwai et al., 2004
substance,measurement,value
dicaffeoylquinic acids [di-CQA's],antioxidant activity relative to CQA's (in words),higher antioxidant activity than the CQA's
